The test system of series [1] is subjects with mild to moderate photodamage. The series is described as follows: Study 3: Retinol 3% (oil-free) vs. RA 0.3%, split-face single-blind clinical study, series of three peel procedures.
Series [2] concerns subjects having Fitzpatrick Skin Types I-IV. The following applies: split-face: Retinoic Acid 0.3% right side vs Retinol 2% left side; 7-day; FIG. 1.
Where [3] appears, read: FIG. 8, post-peel #3, blinded photograph evaluation by an expert physician.

The values that follow come from patent US20200276094A1, “COMPOSITIONS FOR SKIN EXPOLIATION AND USE THEREOF” (Allergan, Inc., priority 2011, published 2020).

“Also recorded” adds a separate entry of the source.

In the case of `CC1=C(/C=C/C(C)=C/C=C/C(C)=C/CO)C(C)(C)CCC1` [retinol, (2E,4E,6E,8E)-3,7-dimethyl-9-(2,6,6-trimethylcyclohex-1-enyl)nona-2,4,6,8-tetraen-1-ol], in series [1] (FIG. 4, Retinol 3% (oil-free) vs Retinoic Acid 0.3%), the “investigator noticed no difference between the sides” value is reported as 95 % of subjects. The “subjects felt no difference between the sides, post-peel #1” value in series [1] (FIG. 5, Retinol 3% (oil-free) vs Retinoic Acid 0.3%) is 75 % of subjects. For the same compound, the “subjects preferred treated side, post-peel #1 subject assessment” value in series [1] (FIG. 5) was 15 % of subjects. Further, in series [1] (FIG. 6, Retinol 3% (oil-free) vs Retinoic Acid 0.3%), the “subjects felt no difference between the sides, post-peel #2” value is reported as 85 % of subjects. For the same compound, the “subjects preferred treated side, post-peel #2 subject assessment” value in series [1] (FIG. 6) is listed as 5 % of subjects. Besides, the “subjects felt no difference between the sides, post-peel #3” value in series [1] (FIG. 7, Retinol 3% (oil-free) vs Retinoic Acid 0.3%) is on record as 95 % of subjects. In addition, the “subjects preferred treated side, post-peel #3 subject assessment” value in series [1] (FIG. 7) is given as 5 % of subjects. Further, in series [1] (setting [3]), the “improvement in fine lines and wrinkles compared to retinoic acid” value is “about twice as much improvement; also recorded: superior efficacy”; the “improvement in photodamage compared to retinoic acid” value is recorded as “about twice as much improvement; also recorded: superior efficacy”; the “improvement in unevenness of skin tone compared to retinoic acid” value is on record as “about twice as much improvement; also recorded: superior efficacy”. Moreover, the “subjects demonstrating a difference favoring the treated side” value in series [1] (end of treatment, one subject) is recorded as 5%. Moreover, the “adverse reaction on treated side” value in series [1] (one subject, treated with topical hydrocortisone for 3 days, resolved, no reaction on re-challenge) is recorded as “irritation (rash, redness)”.

Regarding `CC1=C(/C=C/C(C)=C/C=C/C(C)=C/C(=O)O)C(C)(C)CCC1` [Retinoic Acid], in series [1] (FIG. 5), the “subjects preferred treated side, post-peel #1 subject assessment” value is reported as 10 % of subjects. In series [1] (FIG. 6), the “subjects preferred treated side, post-peel #2 subject assessment” value is recorded as 10 % of subjects. In series [1] (FIG. 7), the “subjects preferred treated side, post-peel #3 subject assessment” value is reported as 0 % of subjects. In series [2], the “stinging/burning and tightness (investigator and subject assessments)” value is listed as “more”.
